From US4605642A, “CRF antagonists” (The Salk Institute for Biological Studies, priority 1984, dated 1986)
Square brackets hold non-standard residues; d marks the D form. Peptide text beside a SMILES is read from it. Nle = CCCC[C@H](N)C(=O)O

Legend:
[1] = system: secretion of β-endorphin by cultured rat pituitary cells; test: Blocking of β-endorphin (β-END-LI) secretion by cultured rat pituitary cells; format: cell-based; conditions: general procedure set forth in Example III
Protocol: (§1) The effectiveness of synthetic CRF antagonists to block the secretion of ACTH and β-endorphin by cultured rat pituitary cells is measured using the procedure as generally set forth in Vale et al., Endocrinology, 91, 562 (1972). In vivo testing is carried out using the general procedure set forth in C. Rivier et al., Science, 218, 377 (1982).

[2] = system: secretion of ACTH by cultured rat pituitary cells; test: Blocking of oCRF-stimulated ACTH secretion by cultured rat pituitary cells; format: cell-based; conditions: general procedure set forth in Example III
Protocol: as §1

H-DLTFHLLREVAEMTRAEQLAQQAHSNRKLMEII-NH2 [[Ala^19, Thr^22]-hCRF(9-41)]
inhibition of the secretion of β-END-LI (in words) [1]: inhibits the secretion
inhibition of the secretion of ACTH (in words) [2]: inhibits the secretion

H-LSLELLRKMIEARKQEKEKQQAANNRLLLDII-NH2
inhibition of the secretion of β-END-LI (in words) [1]: inhibits the secretion
inhibition of the secretion of ACTH (in words) [2]: inhibits the secretion

CCCC[C@H](NC(=O)[C@@H](NC(=O)[C@H](CCC(=O)O)NC(=O)[C@H](CC(C)C)NC(=O)[C@H](CC(C)C)NC(=O)[C@H](CCCCN)NC(=O)[C@H](CCCNC(=N)N)NC(=O)[C@H](CC(N)=O)NC(=O)[C@H](CO)NC(=O)[C@H](Cc1c[nH]cn1)NC(=O)[C@H](C)NC(=O)[C@H](CCC(N)=O)NC(=O)[C@H](CCC(N)=O)NC(=O)[C@H](C)NC(=O)[C@H](CC(C)C)NC(=O)[C@H](CCC(N)=O)NC(=O)[C@H](CCC(=O)O)NC(=O)[C@H](C)NC(=O)[C@H](CCCNC(=N)N)NC(=O)[C@H](C)NC(=O)[C@H](C)NC(=O)[C@H](CCC(=O)O)NC(=O)[C@H](CC(C)C)NC(=O)[C@@H](NC(=O)[C@H](CCC(=O)O)NC(=O)[C@H](CCCNC(=N)N)NC(=O)[C@H](CC(C)C)NC(=O)[C@H](CC(C)C)NC(=O)[C@H](Cc1c[nH]cn1)NC(=O)[C@H](Cc1ccccc1)NC(=O)[C@@H](NC(=O)[C@H](CC(C)C)NC(=O)[C@@H](N)CC(=O)O)[C@@H](C)O)C(C)C)[C@@H](C)CC)C(N)=O [[Ala^21, Leu^38, Nle^41]-hCRF(9-41)] (H-DLTFHLLREVLEAARAEQLAQQAHSNRKLLEI[Nle]-NH2)
inhibition of the secretion of β-END-LI (in words) [1]: inhibits the secretion
inhibition of the secretion of ACTH (in words) [2]: inhibits the secretion

H-DLSLELLRKMIEIAKQEKEKQQAANNRLLMDTI-NH2 [[Ala^21, Met^37]-sauvagine(8-40)]
inhibition of the secretion of β-END-LI (in words) [1]: inhibits the secretion
inhibition of the secretion of ACTH (in words) [2]: inhibits the secretion

H-LDLTLELLREMLEMEKAEKEAEQAALNRLLLEEA-NH2 [[Glu^13,22, Leu^12, Lys^26]-AHC(8-41)]
inhibition of the secretion of β-END-LI (in words) [1]: inhibits the secretion
inhibition of the secretion of ACTH (in words) [2]: inhibits the secretion

CCCC[C@H](NC(=O)[C@H](CCC(=O)O)NC(=O)[C@H](CC(C)C)NC(=O)[C@H](CCCC)NC(=O)[C@H](CCC(=O)O)NC(=O)[C@H](CCCNC(=N)N)NC(=O)[C@H](CC(C)C)NC(=O)[C@H](CC(C)C)NC(=O)[C@H](Cc1c[nH]cn1)NC(=O)[C@H](Cc1ccccc1)NC(=O)[C@@H](NC(=O)[C@@H](N)CC(C)C)[C@@H](C)O)C(=O)N[C@@H](C)C(=O)N[C@@H](CCCCN)C(=O)N[C@@H](C)C(=O)N[C@@H](CCC(=O)O)C(=O)N[C@@H](CCC(N)=O)C(=O)N[C@@H](CCC(=O)O)C(=O)N[C@@H](C)C(=O)N[C@@H](CCC(=O)O)C(=O)N[C@@H](CCC(N)=O)C(=O)N[C@@H](C)C(=O)N[C@@H](C)C(=O)N[C@@H](CC(C)C)C(=O)N[C@@H](CC(N)=O)C(=O)N[C@@H](CCCNC(=N)N)C(=O)N[C@@H](CC(C)C)C(=O)N[C@@H](CC(C)C)C(=O)N[C@@H](CC(C)C)C(=O)N[C@@H](CCC(=O)O)C(=O)N[C@@H](CCC(=O)O)C(=O)N[C@@H](C)C(N)=O [[Nle^18,21]-AHC(10-41)] (H-LTFHLLRE[Nle]LE[Nle]AKAEQEAEQAALNRLLLEEA-NH2)
inhibition of the secretion of β-END-LI (in words) [1]: inhibits the secretion
inhibition of the secretion of ACTH (in words) [2]: inhibits the secretion

CCCC[C@H](NC(=O)[C@@H](NC(=O)[C@@H](N)CC(C)C)[C@@H](C)O)C(=O)N[C@@H](Cc1c[nH]cn1)C(=O)N[C@@H](CC(C)C)C(=O)N[C@@H](CC(C)C)C(=O)N[C@@H](CCCNC(=N)N)C(=O)N[C@@H](CCC(=O)O)C(=O)N[C@H](C(=O)N[C@@H](CC(C)C)C(=O)N[C@@H](CCC(=O)O)C(=O)N[C@@H](CCSC)C(=O)N[C@@H](C)C(=O)N[C@@H](CCCNC(=N)N)C(=O)N[C@@H](C)C(=O)N[C@@H](CCC(=O)O)C(=O)N[C@@H](CCC(N)=O)C(=O)N[C@@H](CC(C)C)C(=O)N[C@@H](C)C(=O)N[C@@H](CCC(N)=O)C(=O)N[C@@H](CCC(N)=O)C(=O)N[C@@H](C)C(=O)N[C@@H](Cc1c[nH]cn1)C(=O)N[C@@H](CO)C(=O)N[C@@H](CC(N)=O)C(=O)N[C@@H](CCCNC(=N)N)C(=O)N[C@@H](CCCCN)C(=O)N[C@@H](CC(C)C)C(=O)N[C@@H](CCSC)C(=O)N[C@@H](CCC(=O)O)C(=O)N[C@H](C(=O)N[C@H](C(N)=O)[C@@H](C)CC)[C@@H](C)CC)C(C)C [[Nle^12]-hCRF(10-41)] (H-LT[Nle]HLLREVLEMARAEQLAQQAHSNRKLMEII-NH2)
inhibition of the secretion of β-END-LI (in words) [1]: inhibits the secretion
inhibition of the secretion of ACTH (in words) [2]: inhibits the secretion

H-DLTFHLLRNMIEMARNENQREQAGLNRKYLDEV-NH2 [Carp Urotensin I(9-41)]
inhibition of the secretion of β-END-LI (in words) [1]: inhibits the secretion
inhibition of the secretion of ACTH (in words) [2]: inhibits the secretion

CCCC[C@H](N)C(=O)N[C@@H](CC(=O)O)C(=O)N[C@@H](CC(C)C)C(=O)N[C@@H](CO)C(=O)N[C@@H](Cc1ccccc1)C(=O)N[C@@H](Cc1c[nH]cn1)C(=O)N[C@@H](CC(C)C)C(=O)N[C@@H](CC(C)C)C(=O)N[C@@H](CCCNC(=N)N)C(=O)N[C@@H](CCC(=O)O)C(=O)N[C@H](C(=O)N[C@@H](CC(C)C)C(=O)N[C@@H](CCC(=O)O)C(=O)N[C@@H](CCSC)C(=O)N[C@@H](C)C(=O)N[C@@H](CCCNC(=N)N)C(=O)N[C@@H](C)C(=O)N[C@@H](CCC(=O)O)C(=O)N[C@@H](CCC(N)=O)C(=O)N[C@@H](CC(C)C)C(=O)N[C@@H](C)C(=O)N[C@@H](CCC(N)=O)C(=O)N[C@@H](CCC(N)=O)C(=O)N[C@@H](C)C(=O)N[C@@H](Cc1c[nH]cn1)C(=O)N[C@@H](CC(C)C)C(=O)N[C@@H](CC(N)=O)C(=O)N[C@@H](CCCNC(=N)N)C(=O)N[C@@H](CCCCN)C(=O)N[C@@H](CC(C)C)C(=O)N[C@@H](CCSC)C(=O)N[C@@H](CCC(=O)O)C(=O)N[C@H](C(=O)N[C@H](C(N)=O)[C@@H](C)CC)[C@@H](C)CC)C(C)C [[Nle^8, Ser^11, Leu^33]-hCRF(8-41)] (H-[Nle]DLSFHLLREVLEMARAEQLAQQAHLNRKLMEII-NH2)
inhibition of the secretion of β-END-LI (in words) [1]: inhibits the secretion
inhibition of the secretion of ACTH (in words) [2]: inhibits the secretion

CCCC[C@H](NC(=O)[C@H](CCC(=O)O)NC(=O)[C@H](CC(C)C)NC(=O)[C@H](CCCC)NC(=O)[C@H](CCC(=O)O)NC(=O)[C@H](CCCNC(=N)N)NC(=O)[C@H](CC(C)C)NC(=O)[C@H](CC(C)C)NC(=O)[C@H](Cc1c[nH]cn1)NC(=O)[C@H](Cc1ccccc1)NC(=O)[C@@H](NC(=O)[C@H](CC(C)C)NC(=O)[C@@H](N)CC(=O)O)[C@@H](C)O)C(=O)N[C@@H](C)C(=O)N[C@@H](CCCCN)C(=O)N[C@@H](C)C(=O)N[C@@H](CCC(=O)O)C(=O)N[C@@H](CCC(N)=O)C(=O)N[C@@H](CCC(=O)O)C(=O)N[C@@H](C)C(=O)N[C@@H](CCC(=O)O)C(=O)N[C@@H](CCC(N)=O)C(=O)N[C@@H](C)C(=O)N[C@@H](C)C(=O)N[C@@H](CC(C)C)C(=O)N[C@@H](CC(N)=O)C(=O)N[C@@H](CCCNC(=N)N)C(=O)N[C@@H](CC(C)C)C(=O)N[C@@H](CC(C)C)C(=O)N[C@@H](CC(C)C)C(=O)N[C@@H](CCC(=O)O)C(=O)N[C@@H](CCC(=O)O)C(=O)N[C@@H](C)C(N)=O [[Nle^18,21]-AHC(9-41)] (H-DLTFHLLRE[Nle]LE[Nle]AKAEQEAEQAALNRLLLEEA-NH2)
inhibition of the secretion of β-END-LI (in words) [1]: inhibits the secretion
inhibition of the secretion of ACTH (in words) [2]: inhibits the secretion

H-DLTFELLREVLEVARAEQLAQQAHSNRKLMEII-NH2 [[Glu^13, Val^21]-hCRF(9-41)]
inhibition of the secretion of β-END-LI (in words) [1]: inhibits the secretion
inhibition of the secretion of ACTH (in words) [2]: inhibits the secretion

Ac-DLTFHLLREVLEMARAEQLAQQAHSNRKLMDII-NH2 [[Acetyl-Asp^9, Asp^39]-hCRF(9-41)]
inhibition of the secretion of β-END-LI (in words) [1]: inhibits the secretion
inhibition of the secretion of ACTH (in words) [2]: inhibits the secretion

H-DLTLELLREMLEMAKAEQEAEQAALNRLLLEEA-NH2 [[Leu^12, Glu^13]-AHC(9-41)]
inhibition of the secretion of β-END-LI (in words) [1]: inhibits the secretion
inhibition of the secretion of ACTH (in words) [2]: inhibits the secretion

H-DLSLELLRKMIEIEKQEKLKQQAANNRLLMDTI-NH2 [[Leu^26, Met^37]-sauvagine(8-40)]
inhibition of the secretion of β-END-LI (in words) [1]: inhibits the secretion
inhibition of the secretion of ACTH (in words) [2]: inhibits the secretion

H-Asp-CML-Thr-Leu-Glu-CML-CML-Arg-Glu-Met-CML-Glu-Met-CMA-Lys-Ala-Glu-Gln- CML-Ala-Glu-Gln-Ala-CMA-CML-Asn-Arg-Leu-CML-Leu-Glu-Glu-CMA-NH2
inhibition of the secretion of β-END-LI (in words) [1]: inhibits the secretion
inhibition of the secretion of ACTH (in words) [2]: inhibits the secretion

H-LDLTFHLLREVLEMAKAEQLAQQAHSNRKLLEII-NH2 [[Lys^23, Leu^38]-hCRF(8-41)]
inhibition of the secretion of β-END-LI (in words) [1]: inhibits the secretion
inhibition of the secretion of ACTH (in words) [2]: inhibits the secretion
